# According to PubChem BioAssay AID1963866 (Molecular Pharmacology Branch, DTP, NCI, 2024):
# System: PDC KRAS tumor spheroids with HUVEC/MSC, viability
# Assay: Anticancer human tumor 349418-098-R-PDC patient-derived lung adenocarcinoma cell line growth inhibition [KRAS2]
# Settings: for IC50: curve of first compound; for viability, T/C: stronger effect = lower value
# Summary of the method: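 Combination screen of spheroid viability in tumor-cell co-cultures with endothelial (HUVEC) and mesenchymal stem cell stroma. Each agent was tested in half-log dilutions, topping at clinical Cmax or at 10 microM without a known Cmax.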
# [1] = second compound 0.1 µM, first compound 0.01 µM
# [2] = second compound 0.1 µM, first compound 0.0316 µM
# [3] = second compound 0.1 µM, first compound 0.1 µM
# [4] = second compound 0.1 µM, first compound 0.316 µM
# [5] = second compound 0.1 µM, first compound 1 µM
# [6] = second compound 0.1 µM, first compound 3.16 µM
# [7] = second compound 0.316 µM, first compound 0.01 µM
# [8] = second compound 0.316 µM, first compound 0.0316 µM
# [9] = second compound 0.316 µM, first compound 0.1 µM
# [10] = second compound 0.316 µM, first compound 0.316 µM
# [11] = second compound 0.316 µM, first compound 1 µM
# [12] = second compound 0.316 µM, first compound 3.16 µM
# [13] = second compound 1 µM, first compound 0.01 µM
# [14] = second compound 1 µM, first compound 0.0316 µM
# [15] = second compound 1 µM, first compound 0.1 µM
# [16] = second compound 1 µM, first compound 0.316 µM
# [17] = second compound 1 µM, first compound 1 µM
# [18] = second compound 1 µM, first compound 3.16 µM
# [19] = second compound 3.16 µM, first compound 0.01 µM
# [20] = second compound 3.16 µM, first compound 0.0316 µM
# [21] = second compound 3.16 µM, first compound 0.1 µM
# [22] = second compound 3.16 µM, first compound 0.316 µM
# [23] = second compound 3.16 µM, first compound 1 µM
# [24] = second compound 3.16 µM, first compound 3.16 µM
# [25] = second compound 10 µM, first compound 0.01 µM
# [26] = second compound 10 µM, first compound 0.0316 µM
# [27] = second compound 10 µM, first compound 0.1 µM
# [28] = second compound 10 µM, first compound 0.316 µM
# [29] = second compound 10 µM, first compound 1 µM
# [30] = second compound 10 µM, first compound 3.16 µM
# [31] = second compound 0.1 µM, first compound 10 µM
# [32] = second compound 0.316 µM, first compound 10 µM
# [33] = second compound 1 µM, first compound 10 µM
# [34] = second compound 3.16 µM, first compound 10 µM
# [35] = second compound 10 µM, first compound 10 µM
# 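Also: spheroids exposed to compounds for seven days before readout.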
smiles,measurement,setting,value
CC(=O)OC12COC1CC(O)C1(C)C(=O)C(O)C3=C(C)C(OC(=O)C(O)C(NC(=O)OC(C)(C)C)c4ccccc4)CC(O)(C(OC(=O)c4ccccc4)C21)C3(C)C (stereo not given) + CNCc1ccccc1-c1csc(C(C)Nc2nc(C)nc3cc(OC)c(OC)cc23)c1,IC50,second compound 0.1 µM,< 10 nM
same,IC50,second compound 0.316 µM,< 10 nM
same,IC50,second compound 1 µM,< 10 nM
same,IC50,second compound 3.16 µM,< 10 nM
same,IC50,second compound 10 µM,< 10 nM
same,"viability, T/C",[1],13.4%
same,"viability, T/C",[2],14.8%
same,"viability, T/C",[3],18.9%
same,"viability, T/C",[4],17.3%
same,"viability, T/C",[5],22%
same,"viability, T/C",[6],24.9%
same,"viability, T/C",[7],10.7%
same,"viability, T/C",[8],13.9%
same,"viability, T/C",[9],15.6%
same,"viability, T/C",[10],17.8%
same,"viability, T/C",[11],21%
same,"viability, T/C",[12],21.6%
same,"viability, T/C",[13],11%
same,"viability, T/C",[14],15.3%
same,"viability, T/C",[15],15%
same,"viability, T/C",[16],21.2%
same,"viability, T/C",[17],23.8%
same,"viability, T/C",[18],24.2%
same,"viability, T/C",[19],8.03%
same,"viability, T/C",[20],0.13%
same,"viability, T/C",[21],0.09%
same,"viability, T/C",[22],0.15%
same,"viability, T/C",[23],0.1%
same,"viability, T/C",[24],23.6%
same,"viability, T/C",[25],0.19%
same,"viability, T/C",[26],0.12%
same,"viability, T/C",[27],0.12%
same,"viability, T/C",[28],0.17%
same,"viability, T/C",[29],22.6%
same,"viability, T/C",[30],0.21%
CC(=O)Nc1cccc(-n2c(=O)n(C3CC3)c(=O)c3c(Nc4ccc(I)cc4F)n(C)c(=O)c(C)c32)c1 + C=CC(=O)N1CCN(c2nc(=O)n(-c3c(C)ccnc3C(C)C)c3nc(-c4c(O)cccc4F)c(F)cc23)C(C)C1,IC50,second compound 0.1 µM,< 0.1 nM
same,IC50,second compound 0.316 µM,< 0.1 nM
same,IC50,second compound 1 µM,< 0.1 nM
same,IC50,second compound 3.16 µM,< 0.1 nM
same,IC50,second compound 10 µM,< 0.1 nM
same,"viability, T/C","second compound 0.1 µM, first compound 0.0001 µM",48.6%
same,"viability, T/C","second compound 0.1 µM, first compound 0.000316 µM",21.9%
same,"viability, T/C","second compound 0.1 µM, first compound 0.001 µM",20.4%
same,"viability, T/C","second compound 0.1 µM, first compound 0.00316 µM",17.6%
same,"viability, T/C",[1],11%
same,"viability, T/C",[2],7.55%
same,"viability, T/C","second compound 0.316 µM, first compound 0.0001 µM",34.9%
same,"viability, T/C","second compound 0.316 µM, first compound 0.000316 µM",31.2%
same,"viability, T/C","second compound 0.316 µM, first compound 0.001 µM",25.3%
same,"viability, T/C","second compound 0.316 µM, first compound 0.00316 µM",19.1%
same,"viability, T/C",[7],11.8%
same,"viability, T/C",[8],9.88%
same,"viability, T/C","second compound 1 µM, first compound 0.0001 µM",39.4%
same,"viability, T/C","second compound 1 µM, first compound 0.000316 µM",34.8%
same,"viability, T/C","second compound 1 µM, first compound 0.001 µM",23.4%
same,"viability, T/C","second compound 1 µM, first compound 0.00316 µM",19.3%
same,"viability, T/C",[13],13.4%
same,"viability, T/C",[14],8.89%
same,"viability, T/C","second compound 3.16 µM, first compound 0.0001 µM",39.5%
same,"viability, T/C","second compound 3.16 µM, first compound 0.000316 µM",29%
same,"viability, T/C","second compound 3.16 µM, first compound 0.001 µM",22%
same,"viability, T/C","second compound 3.16 µM, first compound 0.00316 µM",20.9%
same,"viability, T/C",[19],13%
same,"viability, T/C",[20],10%
same,"viability, T/C","second compound 10 µM, first compound 0.0001 µM",25.4%
same,"viability, T/C","second compound 10 µM, first compound 0.000316 µM",17.4%
same,"viability, T/C","second compound 10 µM, first compound 0.001 µM",18.2%
same,"viability, T/C","second compound 10 µM, first compound 0.00316 µM",15.9%
same,"viability, T/C",[25],10.7%
same,"viability, T/C",[26],9.82%
CC(C)NCC(C(=O)N1CCN(c2ncnc3c2C(C)CC3O)CC1)c1ccc(Cl)cc1 (stereo not given) + CNCc1ccccc1-c1csc(C(C)Nc2nc(C)nc3cc(OC)c(OC)cc23)c1,IC50,second compound 0.1 µM,257 nM
same,IC50,second compound 0.316 µM,208 nM
same,IC50,second compound 1 µM,106 nM
same,IC50,second compound 3.16 µM,< 31.6 nM
same,IC50,second compound 10 µM,< 31.6 nM
same,"viability, T/C",[2],95%
same,"viability, T/C",[3],88%
same,"viability, T/C",[4],39.6%
same,"viability, T/C",[5],22.7%
same,"viability, T/C",[6],14.1%
same,"viability, T/C",[31],6.42%
same,"viability, T/C",[8],96.5%
same,"viability, T/C",[9],68.6%
same,"viability, T/C",[10],39.3%
same,"viability, T/C",[11],19.7%
same,"viability, T/C",[12],12.6%
same,"viability, T/C",[32],6.01%
same,"viability, T/C",[14],79.1%
same,"viability, T/C",[15],52.3%
same,"viability, T/C",[16],16.3%
same,"viability, T/C",[17],9.95%
same,"viability, T/C",[18],1.69%
same,"viability, T/C",[33],3.8%
same,"viability, T/C",[20],0.09%
same,"viability, T/C",[21],0.11%
same,"viability, T/C",[22],0.03%
same,"viability, T/C",[23],0.03%
same,"viability, T/C",[24],0.27%
same,"viability, T/C",[34],0.09%
same,"viability, T/C",[26],0.08%
same,"viability, T/C",[27],0.08%
same,"viability, T/C",[28],0.07%
same,"viability, T/C",[29],0.25%
same,"viability, T/C",[30],0.07%
same,"viability, T/C",[35],0.13%
COc1cc(Nc2ncc3c(n2)-c2ccc(Cl)cc2C(c2c(F)cccc2OC)=NC3)ccc1C(=O)O + COc1cc2nc(C)nc(NC(C)c3cc(N)cc(C(F)(F)F)c3)c2cc1OC1CCOC1,IC50,second compound 0.1 µM,47.4 nM
same,IC50,second compound 0.316 µM,36 nM
same,IC50,second compound 1 µM,< 31.6 nM
same,IC50,second compound 3.16 µM,< 31.6 nM
same,IC50,second compound 10 µM,< 31.6 nM
same,"viability, T/C",[2],60%
same,"viability, T/C",[3],30.7%
same,"viability, T/C",[4],31.8%
same,"viability, T/C",[5],34.2%
same,"viability, T/C",[6],23.3%
same,"viability, T/C",[31],23.8%
same,"viability, T/C",[8],52.8%
same,"viability, T/C",[9],27.4%
same,"viability, T/C",[10],30.8%
same,"viability, T/C",[11],26.5%
same,"viability, T/C",[12],25.4%
same,"viability, T/C",[32],23.4%
same,"viability, T/C",[14],48.5%
same,"viability, T/C",[15],31.2%
same,"viability, T/C",[16],36.2%
same,"viability, T/C",[17],33%
same,"viability, T/C",[18],28.3%
same,"viability, T/C",[33],20.5%
same,"viability, T/C",[20],45.8%
same,"viability, T/C",[21],29.4%
same,"viability, T/C",[22],28%
same,"viability, T/C",[23],25.5%
same,"viability, T/C",[24],18.4%
same,"viability, T/C",[34],19.1%
same,"viability, T/C",[26],16.7%
same,"viability, T/C",[27],22%
same,"viability, T/C",[28],12.4%
same,"viability, T/C",[29],9.24%
same,"viability, T/C",[30],16.1%
same,"viability, T/C",[35],6%
CC(C)NCC(C(=O)N1CCN(c2ncnc3c2C(C)CC3O)CC1)c1ccc(Cl)cc1 (stereo not given) + C=CC(=O)N1CCN(c2nc(=O)n(-c3c(C)ccnc3C(C)C)c3nc(-c4c(O)cccc4F)c(F)cc23)C(C)C1,IC50,second compound 0.1 µM,287 nM
same,IC50,second compound 0.316 µM,275 nM
same,IC50,second compound 1 µM,184 nM
same,IC50,second compound 3.16 µM,107 nM
same,IC50,second compound 10 µM,< 31.6 nM
same,"viability, T/C",[2],101%
same,"viability, T/C",[3],79.6%
same,"viability, T/C",[4],44.7%
same,"viability, T/C",[5],26.6%
same,"viability, T/C",[6],14.2%
same,"viability, T/C",[31],7.87%
same,"viability, T/C",[8],87.2%
same,"viability, T/C",[9],80.5%
same,"viability, T/C",[10],40.6%
same,"viability, T/C",[11],27%
same,"viability, T/C",[12],14.1%
same,"viability, T/C",[32],6.33%
same,"viability, T/C",[14],89.1%
same,"viability, T/C",[15],73.1%
same,"viability, T/C",[16],28.9%
same,"viability, T/C",[17],15.6%
same,"viability, T/C",[18],12.7%
same,"viability, T/C",[33],5.98%
same,"viability, T/C",[20],61.1%
same,"viability, T/C",[21],52.9%
same,"viability, T/C",[22],23.3%
same,"viability, T/C",[23],15.2%
same,"viability, T/C",[24],9.31%
same,"viability, T/C",[34],5.92%
same,"viability, T/C",[26],35.1%
same,"viability, T/C",[27],18.2%
same,"viability, T/C",[28],15.9%
same,"viability, T/C",[29],9.76%
same,"viability, T/C",[30],7.72%
same,"viability, T/C",[35],5.23%
